The term IC50 denotes the concentration that gives 50% inhibition.

Where two headings read alike, the source gives them in different places.

The values below come from PMC9321043, “Synthesis, Structure–Activity Relationships, and Parasitological Profiling of Brussonol Derivatives as New Plasmodium falciparum Inhibitors” (Pharmaceuticals, 2022).

Assay [1] has as its system P. falciparum (3D7 strain). In words: In vitro antiplasmodial activity, P. falciparum blood-stage parasites, SYBR Green I. The assay is classed as cell-based, Plasmodium falciparum. The settings on record: 3D7 strain, 72 h, SYBR Green I, read-out: IC50^Pf. As for the experimental part:
The P. falciparum strains were cultivated in human blood cells (hRBC) O^+, while P. knowlesi was cultivated in rhesus red blood cells (rRBC) as described. P. falciparum complete RPMI (consisting of RPMI-1640, supplemented with 0.2% NaHCO3, 25 mM HEPES (pH 7.4), 11 mM D-glucose, 10 mg/L hypoxanthine, 25 mg/L gentamicin, and 0.5% (m/v) AlbuMAX II). The parasitemias of these cultures were maintained below 10% with 2.5% hematocrit. P. knowlesi complete RPMI (consisting of RPMI-1640 supplemented with 25 mM HEPES, […] hypoxanthine, 0.26% NaHCO3, 10 mg/L gentamicin, and 1% Albumax II). This culture was maintained with RBCs up to 5% hematocrit. The culture medium was changed daily, and all cultures were maintained under a 90% N2/5% CO2/5% O2 gas mixture at 37 °C. All compounds were purchased from Sigma-Aldrich (Cotia, Brazil).
The antiplasmodial activity of brussonol and derivatives was evaluated against P. falciparum blood parasites 3D7(chloroquine-sensitive). The parasites were synchronized through sterile 5% (m/v) D-sorbitol treatment over 10 min at 37 °C for the enrichment of ring stages. Centrifugation 600× g over 5 min was used to pellet the cultures. The parasitemia was determined by microscope analysis of thin blood smears stained with Giemsa 10% (v/v) after fixation with methanol. The initial parasitemia was calculated for 1000 red blood cells (RBCs), and cultures were diluted to 0.5% parasitemia and 2% hematocrit by the addition of the appropriate volumes of blood and medium. A total of 180 µL aliquots of parasites were distributed into 96-well plates followed by the addition of 20 µL of previously prepared aliquots of ten-fold concentrated compounds, the range of concentrations tested was 10–1.53 µM. Negative and positive control wells, which correspond to non-parasitized erythrocytes and parasite cultures in the absence of compounds, were set in parallel. The DMSO concentration was maintained below 0.05% (v/v) for all compounds except for brussonol, which was 0.5%. The plates were incubated for 72 h at 37 °C in a humidified incubator with a gas mixture of 90% N2, 5% O2, and 5% CO2. Each test was performed in duplicates, and the results were compared with the control cultures. Once completed incubation, the culture medium was removed, and the cells were resuspended in 100 µL PBS (116 mM NaCl, 10 mM NaH2PO4, 3 mM KH2PO4) and lysed with 100 µL lysis buffer (20 mM Tris base, 5 mM EDTA, 0.0008% (v/v) Triton X-100, 0.008% (m/v) saponin, pH 8.0) containing 0.002% (v/v) SYBR Green I. Plates were incubated for 30 min at room temperature, and a SpectraMAX Gemini EM plate reader (Molecular Devices Corp., Sunnyvale, CA) was used to determine the fluorescence corresponding to parasitic density (excitation at 485 nm, emission at 535 nm). The half-maximal inhibitory concentration (IC50^Pf) was determined by non-linear regression analysis of the resulting concentration–response curve using the software GraphPad Prism version 8.0.1 for Windows, GraphPad Software, San Diego, California USA, www.graphpad.com, accessed on 3 March 2022”.

Assay [2] deals with HepG2 cells. Kind of assay: Cytotoxic test on immortalized cells, MTT. It counts as cell-based, human. The conditions noted are these: HepG2, 72 h. The procedure: The cytotoxic effects of brussonol and derivatives were evaluated against the human hepatocellular carcinoma cell line (HepG2). The cells were cultivated in an RPMI medium supplemented with 10% (v/v) fetal bovine serum and 25 µg/mL gentamicin. Conditions for the cultivation of these cells were 37 °C and 5% CO2, and every 2 days the supplemented medium was changed.
For experimental procedures, the cells were trypsinized and transferred to a 96-well plate at 30,000 cells per well (180 µL). The plate was incubated at 37 °C and 5% CO2 to allow cell adhesion. Next, 20 µL of serial dilutions of the compounds tested were added to the plate, with a range of concentrations tested from 400–6.25 µM. Cells without any compounds were used as a positive control for growing and the wells containing only medium were used as negative controls. The plate was incubated for 72 h at 37 °C and 5% CO2. After incubation, a microscope was used to determine the highest compound concentration to be used in the experiments (highest concentration without precipitation). A colorimetric assay was used to evaluate cytotoxicity. This assay is based on the metabolic cell activity in the presence of 3-(4,5-dimethylthiazol-2-yl)-2,5-diphenyltetrazolium bromide (MTT). Shortly after incubation, 20 µL of a solution of MTT at 5 mg/mL (solubilized in phosphate buffer) is added to each well. The plate is incubated for 3 to 4 h at 37 °C to allow MTT cleavage in living cells. Then, the supernatant is removed, and 100 µL of dimethylsulfoxide (DMSO) is added to solubilize the purple formazan crystals. The absorbance, which is proportional to the number of viable cells, was determined using a SpectraMAX Plus 384 plate reader (Molecular Devices Corp., Sunnyvale, CA) (λ = 570 nm). All compounds described here were purchased from Sigma-Aldrich (verificar local).
After the IC50 against the parasite and the human cell line is determined, it is possible to calculate the SI. It is calculated as the formula below:SI = IC50^HepG2/IC50^Pf.
For our reference, compounds with SI values higher than 10 are considered well tolerated by the cellular model used, and they are considered for further evaluation.

Assay [3] has as its system hemozoin formation. In words: Hemozoin formation inhibition assay. The assay is classed as biochemical. The settings on record: hemin 25 µM, pH 4.8, 4 h, one experiment in triplicate. The procedure: 2. Hemozoin Formation Inhibition Assay
The hemozoin formation inhibition assay was performed as described previously.12 Briefly, serial 1:3 dilutions, in a 96‐well plate, wit h brussonol were made in a final volume of 20 μL in a concentration 10 times higher than the final concentration of the assay. Secondly, 90 μ L of freshly prepared hemin (at a final concentration of 25 μM) solution in 1M NaOAc/HOAc buffer pH 4.8 were added followed by addition of 90 μ L of 5.4 mg/L Tween 20 solution freshly prepared. The plates were let to stand for 4 hours at 37 °C followed by resuspension with multichannel pippete and read at 415 and 630 nm using a SpectraMAX Plus 384 plate reader (Molecular Devices Corp., Sunnyvale, CA).
Due to the absence of enough compound, this experiment wa s performed only once, but with internal triplicate. Chloroquine (CQ) and pyrimethamine (PYR) were used as positive and negative control of inhibition, respectively.
Inhibition (%) = 100 – 100 x [(Aco ntro l – Asample) / (Acontrol - Amin)] Acontrol is the difference of the absorbance at 415 and 630 nm of the negative control (Hemin +, Tween 20 ‐, Compound ‐); Amin is the difference of the absorbance at 415 and 630 nm of the positive control (Hemin +, Tween 20 +, Compound ‐ ); Asample is the difference of the absorbance at 415 and 630 nm of the sample. The hemozoin formation inhibition assay was performed to evaluate if brussonol act inhibiting hemozoin formation in P. falciparum. CQ, which is a well‐known inhibitor of hemozoin […]
Figure S1. Hemozoin formation inhibition assay. Different concentrations of CQ (black triangles), PYR (red squares) and brussonol (blue circles) were incubated with heme in triplicates. Th e absorbance was recorded at 415/630 nm to determine the hemozoin formation inhibition. […]

For assay [4], the system named is P. falciparum 3D7 strain. Kind of assay: Chemical rescue assay with isopentenyl pyrophosphate (IPP). The settings on record: Plasmodium falciparum, 3D7 strain, 72 h. It counts as cell-based, Plasmodium falciparum. The text has this:
To evaluate whether brussonol interfered with the biosynthesis of […] in malaria parasites, we conducted a chemical rescue assay. The assay identifies compounds that interfere with the metabolism of isoprenoids by “rescuing” their growth inhibition through the supplementation of isopentenyl pyrophosphate (IPP), a key precursor of isoprenoid biosynthesis. […] Thus, the chemical rescue assay compares the IC50 values of the tested compound in the presence and absence of IPP. We used fosmidomycin (FOS) as a positive control for growth inhibition rescuing upon supplementation of IPP (Figure 7b). In this assay, compounds that interfere in the metabolism of isoprenoids show a significant increment in the IC50 value in the presence of IPP (Figure 7b).
The chemical rescue assay was carried out as described by Yeh and DeRisi (2011). This assay consists in verifying the IC50 value of the tested compounds with and without the isopentenyl pyrophosphate (IPP), purchased from Isoprenoids, LC (Florida, USA). Briefly, 3D7 strain ring stages were cultured in 96-well plates, with 0.5% parasitemia and 2% hematocrit. Non-parasitized erythrocytes and parasitized erythrocytes without drugs were used as growth controls, and fosmidomycin (FOS) was used as a positive control for chemical rescue. Serial dilutions of brussonol and FOS were prepared in duplicates. In the same 96-well plate, brussonol and FOS had their antiplasmodial activity evaluated with and without supplementation of 200 µM IPP. Plates were incubated for 72 h and analyzed by the SYBR Green I assay.

The mark [5] stands for this setting: Plasmodium falciparum, 3D7, 72 h.

In the case of `COc1c2c(c(Br)c(C(C)C)c1OC)[C@@H]1C[C@H]3C(C)(C)CCC[C@@]3(C2)O1` (racemic) [Compound 10], the IC50 was 5.6 ± 0.1 µM in assay [1] and around 5 µM in assay [1] (setting [5]).

Take `COc1c(C(C)C)cc2c(c1OC)C[C@@]13CCCC[C@@H]1C[C@@H]2O3` (racemic) [Compound 12]: the IC50 was 5.6 ± 0.8 µM in assay [1] and around 5 µM in assay [1] (setting [5]). For the molecule `Oc1ccc(O)c2c1C[C@@]13CCCC[C@@H]1C[C@@H]2O3` (racemic) [Compound 5], in assay [1] (setting [5]), the IC50 was above 10 µM.

For the molecule `O=C1C=CC(=O)C2=C1CC13CCCCC1CC2O3` (stereo not shown) [Compound 6], the IC50 in assay [1] (setting [5]) was above 10 µM. Still for that read-out and setting: the value for `COc1ccc2c(c1OC)CC13CCCCC1CC2O3` (stereo not shown) [Compound 2] was above 10 µM; that for `Oc1ccc2c(c1O)CC13CCCCC1CC2O3` (stereo not shown) [Compound 4] was above 10 µM. Regarding `COc1c2c(c(OC)c(C(C)C)c1OC)[C@@H]1C[C@H]3C(C)(C)CCC[C@@]3(C2)O1` (racemic) [Compound 8], the results for the IC50 in assay [1] (setting [5]), in assay [2] and in assay [2] (Homo sapiens) were around 5 µM, 170 ± 38 µM and above 170 µM, respectively. Turning to `CC(C)c1cc2c(c(O)c1O)C[C@@]13CCCC[C@@H]1C[C@@H]2O3` (racemic) [Compound 13], the half-inhibitory concentration (IC50) in assay [1] (setting [5]) is above 10 µM. For the molecule `COc1c2c(c(-c3ccccc3)c(C(C)C)c1OC)[C@@H]1C[C@H]3CCCC[C@@]3(C2)O1` (racemic) [Compound 15], the IC50 in assay [1] (setting [5]) was 5.89 ± 0.02 µM; in assay [2] (Homo sapiens), above 50 µM. Regarding `COc1ccc(OC)c2c1CC13CCCCC1CC2O3` (stereo not shown) [Compound 3], the 50% inhibitory concentration (IC50) in assay [1] (setting [5]) is above 10 µM.

The molecule `CCN(CC)CCCC(C)Nc1ccnc2cc(Cl)ccc12` (stereo not shown) [Chloroquine, reference compound] gave a half-inhibitory concentration (IC50) in assay [3] of 80 µM.

Turning to `O=CN(O)CCCP(=O)(O)O` [fosmidomycin, reference compound], the IC50 in assay [4] (with 200 µM IPP, read-out: IC50 in the presence of IPP) was above 20 µM; in assay [4] (without IPP, read-out: IC50 in the absence of IPP) it was 1.2 ± 0.2 µM. For `COc1c2c(c(-c3ccccc3)c(C(C)C)c1OC)[C@@H]1C[C@H]3C(C)(C)CCC[C@@]3(C2)O1` (racemic) [Compound 11], the IC50 in assay [1] (setting [5]) is 5.8 ± 0.2 µM; in assay [2] (Homo sapiens), above 12 µM.

For `COc1c2c(c(Br)c(C(C)C)c1OC)C1CC3CCCCC3(C2)O1` (stereo not shown) [Compound 14], the IC50 in assay [1] (setting [5]) is 5.65 ± 0.05 µM; in assay [2] (Homo sapiens), above 25 µM. Take `COc1ccc2c(c1OC)C[C@@]13CCCC(C)(C)[C@@H]1C[C@@H]2O3` (racemic) [Compound 9]: the IC50 in assay [1] (setting [5]) was above 10 µM. For `COc1c(C(C)C)cc2c(c1OC)CC13CCCC(C)(C)C1CC2O3` (stereo not shown) [Compound 7], the IC50 was 5.2 ± 0.4 µM in assay [1] (setting [5]) and above 192 µM in assay [2] (Homo sapiens).
